Measurements taken from US10266558B2, “Macroheterocyclic nucleoside derivatives and their analogues, production and use thereof” (ASAVI, LLC, priority 2016, dated 2019).

Tests used:
[1] = tested on: xenografts models of human pancreatic cancer; conditions: in vivo; cited from earlier work
HCV replicon = conditions: cited from earlier work
[2] = in the clinic; cited from earlier work
HCV NS5B RNA-polymerase = target: T1, HCV NS5B RNA-polymerase (Hepatitis C virus genotype 1a, UniProt P27958); conditions: versus PSI-6206, Gemcitabine and 2′-C-Methylcytidine; cited from earlier work
T1 construct: HCV NS5B RNA-polymerase
T1 sequence (P27958 2421-3011): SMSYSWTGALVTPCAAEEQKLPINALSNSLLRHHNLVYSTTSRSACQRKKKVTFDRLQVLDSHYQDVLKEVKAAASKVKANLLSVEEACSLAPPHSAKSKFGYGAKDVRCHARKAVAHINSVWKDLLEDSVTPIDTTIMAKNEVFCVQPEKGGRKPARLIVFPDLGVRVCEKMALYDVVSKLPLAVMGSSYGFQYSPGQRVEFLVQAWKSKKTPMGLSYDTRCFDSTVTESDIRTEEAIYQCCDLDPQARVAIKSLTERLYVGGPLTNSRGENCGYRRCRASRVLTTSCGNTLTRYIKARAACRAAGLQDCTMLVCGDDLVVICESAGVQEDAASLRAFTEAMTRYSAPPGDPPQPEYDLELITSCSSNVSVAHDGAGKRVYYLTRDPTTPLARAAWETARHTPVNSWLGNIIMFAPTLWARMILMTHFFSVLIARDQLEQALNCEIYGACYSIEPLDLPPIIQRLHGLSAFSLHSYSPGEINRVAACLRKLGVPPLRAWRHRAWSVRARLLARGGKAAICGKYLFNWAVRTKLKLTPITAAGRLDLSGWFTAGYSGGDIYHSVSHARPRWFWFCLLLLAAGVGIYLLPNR

[3] = Metabolic stability in human liver S9 fraction; assay type: in vitro ADME; conditions: pH 7.4
Experimental: The human liver S9 fraction metabolic stability in human liver microsomal fraction of Macroheterocyclic nucleoside derivative represented by formula 1 and 2 and Sovaldi. Stock solutions of test compounds and PSI-352707 (10 mM) were prepared in DMSO and stored at −20° C. 10-× standard solutions of PSI-352707 (10, 8, 5, 2 and 1 μM) were prepared by dilution stock solution with water-acetonitrile mixture (1/1, v/v). The reaction mixture was prepared in a total volume of 350.5 μL containing 0.1 M potassium phosphate buffer (pH 7.4), 1 mM NADPH, 7 mM G6P, 1.5 U/mL G6PDH, 3.3 mM MgCl2, 5 mM UDPGA, 122 μLdeionised water and 1 μM test compound. The reaction mixture was pre-incubated at 400 rpm, 37° C. The reaction was initiated by adding 1 mg/mL human liver S9 fraction to the reaction mixture and incubated at 400 rpm, 37° C. […]
ABSciex QTrap 5500 Source (TurboIonSpray) was operated in negative ionization mode (Source temperature 650° C., Source gas 1 and Source gas 2-65 and 40 psi respectively). PSI-352707 and IS (tolbutamide) were detected in MRM mode by transitions with m/z 410 to 150 for H027-4261 (collision energy […]) and 269/170 for tolbutamide (collision energy […]). […] Data analysis and quantitation was performed in Analyst 1.5.2 Software (AB Sciex).

physchem = conditions: simulated gi fluid
[4] = tested on: lamivudine-entecavir resistant clone (L180M+M204V+S202G); conditions: resistant mutant (L180M+M204V+S202G); cited from earlier work
HBV wild-type = conditions: cited from earlier work

Molecule: C[C@H](NP(=O)(OC[C@H]1O[C@@H](n2ccc(N)nc2=O)C(F)(F)[C@@H]1O)Oc1ccccc1)C(=O)OCc1ccccc1 (some centres unmarked) [NUC-1031, Gemcitabin-5′-phosphoramidate]
- tumor volume [1]: significantly reduced tumor volume

Molecule: COc1nc(N)nc2c1ncn2[C@@H]1O[C@H](COP(=O)(N[C@@H](C)C(=O)OCC(C)(C)C)Oc2cccc3ccccc23)[C@@H](O)[C@@]1(C)O (some centres unmarked) [INX-08189]
- EC50 (HCV replicon): 10 nM
- cardiovascular toxicity [2]: severe cardiovascular toxicity

Molecule: CC(C)OC(=O)[C@H](C)NP(=O)(OC[C@H]1O[C@@H](n2ccc(NO)nc2=O)[C@](C)(O)[C@@H]1O)Oc1ccccc1 (some centres unmarked) [CC-1845]
- inhibitory activity compared with the corresponding nucleoside (HCV NS5B RNA-polymerase): by orders of magnitude higher

Molecule: CC(C)OC(=O)[C@H](C)N[P@](=O)(OC[C@H]1O[C@@H](n2ccc(=O)[nH]c2=O)[C@](C)(F)[C@@H]1O)Oc1ccccc1 [Sovaldi®, sofosbuvir]
- half-life at 1 μM [3]: > 1.8 h
- half-life (physchem): 15 h
- inhibitory activity compared with the corresponding nucleoside (HCV NS5B RNA-polymerase): by orders of magnitude higher

Molecule: CC(C)OC(=O)[C@H](C)NP(=O)(OC[C@H]1O[C@@H](n2ccc(N)nc2=O)C(F)(F)[C@@H]1O)Oc1ccccc1 (some centres unmarked) [AVI-4201]
- inhibitory activity compared with the corresponding nucleoside (HCV NS5B RNA-polymerase): by orders of magnitude higher

Molecule: COc1nc(N)nc2c1ncn2[C@@H]1O[C@H](COP(=O)(N[C@@H](C)C(=O)OC(C)C)Oc2ccccc2)[C@@H](O)[C@@]1(C)F (some centres unmarked) [PSI-353661]
- EC90 (HCV replicon; replicon assay): 8 nM
- increase in potency compared to the guanosine analogue β-D-2′-deoxy-2′-R-fluoro-2′-β-C-methylguanosine (HCV replicon; replicon assay): 1000 fold

Molecule: 2′-Fluoro-6′-methylene-carbocyclic adenosine phosphoramidate [5′-phosphoramidate of FMCA]
- EC50 [4]: 54 nM
- EC50 (HBV wild-type; HBV replication, wild-type): 620 nM
- more potent than FMCA (HBV wild-type; against both the wild-type and resistant mutant): 10 fold

Molecule: C[C@@H]1N[P@@](=O)(Oc2ccccc2)OC[C@H]2O[C@@H](n3ccc(=O)[nH]c3=O)[C@](C)(F)[C@@H]2OC(=O)CCCOC1=O [1(13)]
- half-life at 1 μM [3]: > 12.4 h
- half-life (physchem): > 24 h

Molecule: CC(C)(CO)C(=O)SCCOP(=O)(COC[C@H]1OC(n2cnc3c(=O)[nH]c(N)nc32)[C@](C)(O)[C@@H]1O)NCc1ccccc1 (some centres unmarked) [IDX-184]
- EC50 (HCV replicon): 400 nM

Molecule: Nc1ccn([C@@H]2O[C@H](COP(=O)(N[C@H]3CCOC3=O)Oc3ccccc3)[C@@H](O)C2(F)F)c(=O)n1 (some centres unmarked) [AVI-4203]
- inhibitory activity compared with the corresponding nucleoside (HCV NS5B RNA-polymerase): by orders of magnitude higher
